In ChEMBL document CHEMBL1201862, “PubChem BioAssay data set” (2004):
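Tested at 5 concentrations; 48 h exposure; 96-well plates; endpoints linearly interpolated, else capped at highest concentration. GI50 = concentration required for 50% inhibition of growth.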 Active and inactive are the calls of the source. No stated cut-off is given here; in the data, active = GI50 up to about 1.1 µM and inactive = higher.

Tests used:
Assay in all cases: DTP human tumour cell line panel, 48 h
OVCAR-3 = tested on: OVCAR-3
M14 = tested on: M14
NCI-H226 = tested on: NCI-H226
RPMI-8226 = tested on: RPMI-8226
SF-539 = tested on: SF-539
UACC-62 = tested on: UACC-62
Malme-3M = tested on: Malme-3M
HCT-15 = tested on: HCT-15
SK-MEL-5 = tested on: SK-MEL-5
OVCAR-8 = tested on: OVCAR-8
NCI-H23 = tested on: NCI-H23
OVCAR-5 = tested on: OVCAR-5
KM-20L2 = tested on: KM-20L2
SK-MEL-28 = tested on: SK-MEL-28
HL-60 = tested on: HL-60
LXFL 529 = tested on: LXFL 529
SNB-78 = tested on: SNB-78
SF-268 = tested on: SF-268
UACC-257 = tested on: UACC-257
HT-29 = tested on: HT-29
786-0 = tested on: 786-0
TK-10 = tested on: TK-10
MOLT-4 = tested on: MOLT-4
OVCAR-4 = tested on: OVCAR-4
CCRF-CEM = tested on: CCRF-CEM
SW-620 = tested on: SW-620
K562 = tested on: K562
SK-OV-3 = tested on: SK-OV-3
M19-MEL = tested on: M19-MEL
U-251 = tested on: U-251
A498 = tested on: A498
A549 = tested on: A549
DLD-1 = tested on: DLD-1
CAKI-1 = tested on: CAKI-1
EKVX = tested on: EKVX
COLO 205 = tested on: COLO 205
SF-295 = tested on: SF-295
HCC 2998 = tested on: HCC 2998
XF498 = tested on: XF498
UO-31 = tested on: UO-31
HOP-62 = tested on: HOP-62
SNB-19 = tested on: SNB-19
RXF 631 = tested on: RXF 631
HOP-18 = tested on: HOP-18
IGROV-1 = tested on: IGROV-1
RXF 393 = tested on: RXF 393
DMS-114 = tested on: DMS-114
HOP-92 = tested on: HOP-92
SN12C = tested on: SN12C
NCI-H460 = tested on: NCI-H460
ACHN = tested on: ACHN
NCI-H522 = tested on: NCI-H522
SK-MEL-2 = tested on: SK-MEL-2
LOX IMVI = tested on: LOX IMVI
HCT-116 = tested on: HCT-116
KM12 = tested on: KM12
DMS-273 = tested on: DMS-273
SNB-75 = tested on: SNB-75
SR = tested on: SR

Measured: GI50

COC(=O)C12C3C4C1C1C2C3C41C(=O)O (configuration not stated)
inactive: OVCAR-3 > 100 µM | M14 > 100 µM | NCI-H226 > 100 µM | RPMI-8226 > 100 µM | SF-539 > 100 µM | UACC-62 > 100 µM | Malme-3M > 100 µM | SK-MEL-5 > 100 µM | OVCAR-8 > 100 µM | NCI-H23 > 100 µM | OVCAR-5 > 100 µM | KM-20L2 > 100 µM | SK-MEL-28 > 100 µM | HL-60 > 100 µM | LXFL 529 > 100 µM | SNB-78 > 100 µM | SF-268 > 100 µM | UACC-257 > 100 µM | HT-29 > 100 µM | 786-0 > 100 µM | TK-10 > 100 µM | MOLT-4 > 100 µM | OVCAR-4 > 100 µM | CCRF-CEM > 100 µM | SW-620 > 100 µM | K562 > 100 µM | SK-OV-3 > 100 µM | M19-MEL > 100 µM | U-251 > 100 µM | A498 > 100 µM | A549 > 100 µM | DLD-1 > 100 µM | CAKI-1 > 100 µM | EKVX > 100 µM | COLO 205 > 100 µM | SF-295 > 100 µM | HCC 2998 > 100 µM | XF498 > 100 µM | UO-31 > 100 µM | HOP-62 > 100 µM | SNB-19 > 100 µM | RXF 631 > 100 µM | HOP-18 > 100 µM | IGROV-1 > 100 µM | RXF 393 > 100 µM | DMS-114 > 100 µM | HOP-92 > 100 µM | SN12C > 100 µM | NCI-H460 > 100 µM | ACHN > 100 µM
> 100 µM: HCT-15

OCc1cc2c(cn1)[nH]c1ccc(NCc3ccccc3)cc12
27.2 µM: HCT-15
inactive: NCI-H522 15.7 µM | OVCAR-3 19.4 µM | M14 16.4 µM | NCI-H226 19.1 µM | SK-MEL-2 40.2 µM | RPMI-8226 11 µM | SF-539 30.3 µM | UACC-62 17.2 µM | Malme-3M 28.7 µM | SK-MEL-5 12.2 µM | OVCAR-8 29.4 µM | NCI-H23 20 µM | OVCAR-5 27.7 µM | KM-20L2 14.4 µM | SK-MEL-28 16.1 µM | HL-60 12.1 µM | LXFL 529 17.9 µM | SF-268 20.5 µM | UACC-257 23.3 µM | HT-29 14.8 µM | 786-0 25.2 µM | LOX IMVI 28.4 µM | TK-10 30.6 µM | MOLT-4 17.5 µM | OVCAR-4 26.5 µM | CCRF-CEM 20.7 µM | SW-620 27.4 µM | K562 23 µM | SK-OV-3 25.5 µM | HCT-116 16.4 µM | M19-MEL 22.2 µM | U-251 38.9 µM | A498 17.8 µM | A549 28.1 µM | DLD-1 34.8 µM | CAKI-1 27.4 µM | EKVX 37.1 µM | KM12 18.6 µM | COLO 205 17.7 µM | SF-295 22.3 µM | HCC 2998 24.8 µM | XF498 25.8 µM | UO-31 20.7 µM | HOP-62 51.9 µM | DMS-273 20.7 µM | SNB-19 37.3 µM | RXF 631 27.4 µM | IGROV-1 43 µM | RXF 393 20.3 µM | SNB-75 25.5 µM | DMS-114 15.6 µM | HOP-92 15.9 µM | SN12C 34.9 µM | NCI-H460 24.4 µM | ACHN 20 µM

Cc1cc2c(cc1C)[n+]([O-])c(C(=O)C/C(=N/NC(=S)NN)C(=O)Nc1cccc(C(F)(F)F)c1)c[n+]2[O-]
inactive: NCI-H522 > 100 µM | OVCAR-3 > 100 µM | M14 > 100 µM | NCI-H226 > 100 µM | SK-MEL-2 > 100 µM | RPMI-8226 > 100 µM | SF-539 > 100 µM | UACC-62 > 100 µM | Malme-3M > 100 µM | SK-MEL-5 > 100 µM | OVCAR-8 > 100 µM | NCI-H23 > 100 µM | OVCAR-5 > 100 µM | SK-MEL-28 > 100 µM | HL-60 > 100 µM | LXFL 529 > 100 µM | SNB-78 > 100 µM | SF-268 > 100 µM | UACC-257 > 100 µM | HT-29 > 100 µM | 786-0 > 100 µM | TK-10 > 100 µM | MOLT-4 > 100 µM | SR 65.6 µM | OVCAR-4 > 100 µM | CCRF-CEM 56.9 µM | SW-620 > 100 µM | K562 > 100 µM | SK-OV-3 > 100 µM | HCT-116 > 100 µM | M19-MEL > 100 µM | U-251 > 100 µM | A498 > 100 µM | A549 > 100 µM | DLD-1 > 100 µM | CAKI-1 > 100 µM | EKVX > 100 µM | KM12 > 100 µM | COLO 205 > 100 µM | SF-295 > 100 µM | HCC 2998 > 100 µM | UO-31 > 100 µM | HOP-62 > 100 µM | DMS-273 > 100 µM | SNB-19 34 µM | RXF 631 > 100 µM | HOP-18 > 100 µM | IGROV-1 > 100 µM | SNB-75 > 100 µM | DMS-114 > 100 µM | HOP-92 > 100 µM | SN12C > 100 µM | NCI-H460 > 100 µM | ACHN > 100 µM
> 100 µM: HCT-15

Cc1c(OC(C)C(=O)O)ccc2c(-c3ccccc3)cc(=O)oc12 (configuration not stated)
inactive: NCI-H522 > 100 µM | OVCAR-3 > 100 µM | M14 > 100 µM | NCI-H226 > 100 µM | RPMI-8226 > 100 µM | SF-539 > 100 µM | UACC-62 > 100 µM | Malme-3M > 100 µM | SK-MEL-5 > 100 µM | OVCAR-8 > 100 µM | NCI-H23 > 100 µM | KM-20L2 > 100 µM | SK-MEL-28 > 100 µM | HL-60 > 100 µM | LXFL 529 > 100 µM | SNB-78 > 100 µM | SF-268 > 100 µM | UACC-257 > 100 µM | HT-29 > 100 µM | 786-0 > 100 µM | LOX IMVI > 100 µM | TK-10 > 100 µM | MOLT-4 > 100 µM | SR > 100 µM | OVCAR-4 > 100 µM | CCRF-CEM > 100 µM | SW-620 > 100 µM | K562 > 100 µM | SK-OV-3 > 100 µM | HCT-116 > 100 µM | M19-MEL > 100 µM | U-251 > 100 µM | A498 > 100 µM | A549 > 100 µM | DLD-1 > 100 µM | CAKI-1 > 100 µM | EKVX > 100 µM | KM12 > 100 µM | COLO 205 > 100 µM | SF-295 > 100 µM | HCC 2998 > 100 µM | XF498 > 100 µM | UO-31 > 100 µM | HOP-62 > 100 µM | SNB-19 > 100 µM | RXF 631 > 100 µM | HOP-18 > 100 µM | IGROV-1 > 100 µM | RXF 393 > 100 µM | SNB-75 > 100 µM | DMS-114 > 100 µM | HOP-92 > 100 µM | SN12C > 100 µM | NCI-H460 > 100 µM | ACHN > 100 µM

Cc1cccc(N2C(=O)C(=O)C(c3nc4ccccc4s3)C(=O)C2=O)c1C
inactive: NCI-H522 > 100 µM | OVCAR-3 > 100 µM | M14 > 100 µM | NCI-H226 > 100 µM | SK-MEL-2 > 100 µM | RPMI-8226 > 100 µM | SF-539 > 100 µM | UACC-62 > 100 µM | Malme-3M > 100 µM | SK-MEL-5 > 100 µM | OVCAR-8 > 100 µM | NCI-H23 > 100 µM | OVCAR-5 > 100 µM | KM-20L2 > 100 µM | SK-MEL-28 > 100 µM | LXFL 529 > 100 µM | SNB-78 > 100 µM | SF-268 > 100 µM | UACC-257 > 100 µM | HT-29 > 100 µM | 786-0 > 100 µM | LOX IMVI > 100 µM | TK-10 > 100 µM | MOLT-4 > 100 µM | SR > 100 µM | OVCAR-4 > 100 µM | CCRF-CEM 35.7 µM | SW-620 > 100 µM | K562 > 100 µM | SK-OV-3 > 100 µM | HCT-116 > 100 µM | M19-MEL > 100 µM | U-251 > 100 µM | A498 > 100 µM | A549 > 100 µM | DLD-1 > 100 µM | CAKI-1 > 100 µM | EKVX > 100 µM | COLO 205 > 100 µM | SF-295 > 100 µM | HCC 2998 > 100 µM | UO-31 > 100 µM | HOP-62 > 100 µM | DMS-273 > 100 µM | SNB-19 > 100 µM | RXF 631 > 100 µM | HOP-18 > 100 µM | IGROV-1 > 100 µM | SNB-75 > 100 µM | DMS-114 > 100 µM | HOP-92 > 100 µM | SN12C > 100 µM | ACHN > 100 µM
active: HL-60 < 0.01 µM
> 100 µM: HCT-15
